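Dose response: 5 concentrations. Exposure: 48 h. Format: 96-well plates. Endpoint: linear interpolation; highest concentration if not reached. GI50 marks 50% less growth.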 The source made the active and inactive calls. Rule as the data show it: active = GI50 up to about 1.1 µM and inactive = higher.

Some test systems named below: ACHN; CCRF-CEM; HCT-116; HOP-62; LOX IMVI; M14; MDA-MB-231; MOLT-4; Malme-3M; NCI-H226; OVCAR-3; OVCAR-4; OVCAR-8; SK-OV-3; SNB-19; SR; SW-620; T47D; UACC-257; UACC-62.
Assay in all cases: growth of human tumour cells (NCI), 48 h

On to `NS(=O)(=O)c1ccc(NCc2cccc3c(=O)c4ccc(Cl)cc4oc23)cc1`, for which the GI50 in the assay on ACHN was 28.4 µM (inactive); with CCRF-CEM, 4.75 µM (inactive); in the assay on HCT-116 it was 6.17 µM (inactive); with HOP-62 it was 39.7 µM (inactive); with LOX IMVI it was 20.9 µM (inactive); in the assay on M14, 27.8 µM (inactive). Also, the GI50 with MDA-MB-231 is 52 µM (inactive); in the assay on MOLT-4 it was 19.7 µM (inactive); with Malme-3M, 12.3 µM (inactive); in the assay on NCI-H226 it was > 76.7 µM (inactive); in the assay with OVCAR-3 it was 54.8 µM (inactive); with OVCAR-4 it was > 95.9 µM (inactive). The GI50 in the assay on OVCAR-8 is 24.2 µM (inactive); in the assay with SK-OV-3, > 71.8 µM (inactive); in the assay with SNB-19 it was 8.07 µM (inactive); with SR it was 4.68 µM (inactive); in the assay on SW-620 it was 6.38 µM (inactive); in the assay on T47D, 81.3 µM (inactive). Further, the GI50 is 60.4 µM (inactive) in the assay on UACC-257 and 23.1 µM (inactive) in the assay on UACC-62.
As to `COc1ccc(C(=O)N2CCN(c3ccc4c(c3)OCC(=O)N4)CC2)cc1`, the GI50 in the assay on ACHN, in the assay on CCRF-CEM, in the assay with HCT-116, with HOP-62, with LOX IMVI and in the assay with M14 was > 100 µM (inactive) each time. The GI50 in the assay on MDA-MB-231, with MOLT-4, with Malme-3M, in the assay on NCI-H226, with OVCAR-3 and in the assay with OVCAR-4 was > 100 µM (inactive) throughout. Besides, the GI50 with OVCAR-8 is > 100 µM (inactive); in the assay on SK-OV-3, > 100 µM (inactive); in the assay on SNB-19, > 100 µM (inactive); in the assay with SR, 67.3 µM (inactive); in the assay on SW-620, > 100 µM (inactive); in the assay on T47D, > 100 µM (inactive). Also, the GI50 with UACC-257 and with UACC-62 was > 100 µM (inactive) throughout.
Turning to `CCC(CCCC[C@H]1CC[C@@H]2CC(=O)C[C@H]12)OC` (stereo not given in full), the GI50 with ACHN was > 100 µM (inactive); in the assay on CCRF-CEM, > 100 µM (inactive); in the assay on HCT-116 it was 76 µM (inactive); with HOP-62 it was > 100 µM (inactive); in the assay on LOX IMVI, > 100 µM (inactive); in the assay on M14 it was > 100 µM (inactive). In addition, the GI50 with MDA-MB-231, in the assay with MOLT-4, in the assay on Malme-3M, with NCI-H226, in the assay with OVCAR-3 and with OVCAR-4 was > 100 µM (inactive) each time. Moreover, the GI50 in the assay on OVCAR-8 was > 100 µM (inactive); in the assay with SK-OV-3, > 100 µM (inactive); in the assay on SNB-19, > 100 µM (inactive); with SR, 51.8 µM (inactive); in the assay with SW-620, > 100 µM (inactive); in the assay on T47D, > 100 µM (inactive). Also, the GI50 was 46.5 µM (inactive) with UACC-257 and 76 µM (inactive) in the assay on UACC-62.
With `Cc1cnc2c(c1)C(=O)N(c1ccc([N+](=O)[O-])cc1)S2(=O)=O`, the GI50 in the assay with ACHN is > 100 µM (inactive); with CCRF-CEM, 82.4 µM (inactive); in the assay with HCT-116, > 100 µM (inactive); with HOP-62, > 100 µM (inactive); with LOX IMVI, 73.5 µM (inactive); with M14, > 100 µM (inactive). Also, the GI50 is > 100 µM (inactive) in the assay with MDA-MB-231; > 100 µM (inactive) with MOLT-4; 22.4 µM (inactive) in the assay with Malme-3M; 19.9 µM (inactive) in the assay with NCI-H226; > 100 µM (inactive) with OVCAR-3; 78 µM (inactive) in the assay with OVCAR-4. Besides, the GI50 was > 100 µM (inactive) in the assay on OVCAR-8; > 100 µM (inactive) with SK-OV-3; 56.2 µM (inactive) in the assay with SNB-19; 25.7 µM (inactive) in the assay on SR; 58.7 µM (inactive) in the assay on SW-620; > 100 µM (inactive) in the assay on T47D. The results for the GI50 with UACC-257 and in the assay with UACC-62 were > 100 µM (inactive) and 75.5 µM (inactive), respectively.
Turning to `NC1=Nc2ccccc2Sc2nccn21`, the GI50 in the assay on ACHN was 30 µM (inactive); with CCRF-CEM, 27 µM (inactive); with HCT-116, 27.5 µM (inactive); in the assay with HOP-62, 24.4 µM (inactive); in the assay with LOX IMVI it was 17.8 µM (inactive); in the assay with M14 it was 17 µM (inactive). For the same compound, the GI50 is 16.1 µM (inactive) in the assay with MDA-MB-231; 20.2 µM (inactive) with MOLT-4; 17.2 µM (inactive) in the assay with Malme-3M; 20.9 µM (inactive) in the assay on NCI-H226; 18.6 µM (inactive) with OVCAR-3; 30.6 µM (inactive) in the assay on OVCAR-4. For the same compound, the GI50 with OVCAR-8 is 31.1 µM (inactive); with SK-OV-3, > 100 µM (inactive); in the assay with SNB-19, 40.3 µM (inactive); with SR it was 26.4 µM (inactive); with SW-620, 32.3 µM (inactive); with T47D it was 24.7 µM (inactive). The values for the GI50 in the assay with UACC-257 and in the assay on UACC-62 were 31.8 µM (inactive) and 28.2 µM (inactive), respectively.
As for `COc1ccc(C2=C(Cl)c3cc(OC)c(OC)cc3C2=O)cc1OC`, the GI50 with ACHN was 5.57 µM (inactive); in the assay on CCRF-CEM, 3.93 µM (inactive); in the assay on HCT-116, 4.22 µM (inactive); with HOP-62 it was 15.3 µM (inactive); with LOX IMVI it was 12 µM (inactive); with M14 it was 4.84 µM (inactive). Also, the GI50 is 16.4 µM (inactive) in the assay with MDA-MB-231; 3.63 µM (inactive) in the assay with MOLT-4; 13.2 µM (inactive) with Malme-3M; 38.7 µM (inactive) with NCI-H226; 1.77 µM (inactive) in the assay with OVCAR-3; 12.1 µM (inactive) in the assay with OVCAR-4. In addition, the GI50 in the assay on OVCAR-8 was 16.9 µM (inactive); with SK-OV-3 it was 21 µM (inactive); in the assay with SNB-19, > 100 µM (inactive); in the assay with SR, 6.11 µM (inactive); in the assay on SW-620 it was 12.7 µM (inactive); in the assay with T47D, 2.95 µM (inactive). The GI50 in the assay with UACC-257 is 4.28 µM (inactive); with UACC-62, 15.4 µM (inactive).
As for `COc1cc(/C=C/C=C2\CC(C)C/C(=C\C=C\c3ccc(O)c(OC)c3)C2=O)ccc1O` (stereo not given), the GI50 in the assay with ACHN is 4.98 µM (inactive); in the assay with CCRF-CEM it was 1.14 µM (inactive); in the assay on HCT-116, 15 µM (inactive); in the assay with HOP-62, 17.4 µM (inactive); with LOX IMVI, 12.4 µM (inactive); in the assay on M14, 15.4 µM (inactive). In addition, the GI50 was 17 µM (inactive) in the assay on MDA-MB-231; 0.964 µM (active) with MOLT-4; 9.48 µM (inactive) in the assay on Malme-3M; 14.8 µM (inactive) with NCI-H226; 10.8 µM (inactive) with OVCAR-3; 4.83 µM (inactive) in the assay on OVCAR-4. In addition, the GI50 in the assay on OVCAR-8 is 11.5 µM (inactive); in the assay on SK-OV-3, 4.83 µM (inactive); with SNB-19, 23 µM (inactive); in the assay on SR, 1.69 µM (inactive); with SW-620, 12.7 µM (inactive); in the assay with T47D, 7.48 µM (inactive). In addition, the figures for the GI50 in the assay with UACC-257 and in the assay on UACC-62 were 20.2 µM (inactive) and 11.9 µM (inactive), respectively.
`COC(=O)c1cc(C)n(CN(Cc2ccccc2)Cn2nc(C(=O)OC)cc2C)n1`: the GI50 was > 43.1 µM (inactive) in the assay on ACHN; 17.1 µM (inactive) in the assay with CCRF-CEM; > 43 µM (inactive) with HCT-116; > 100 µM (inactive) in the assay with HOP-62; > 100 µM (inactive) in the assay with LOX IMVI; > 100 µM (inactive) in the assay with M14. Moreover, the GI50 in the assay with MDA-MB-231 was > 100 µM (inactive); with MOLT-4, > 100 µM (inactive); with Malme-3M it was > 100 µM (inactive); in the assay on NCI-H226, > 100 µM (inactive); with OVCAR-3, > 100 µM (inactive); with OVCAR-4, > 64.1 µM (inactive). Besides, the GI50 in the assay on OVCAR-8 was > 84.1 µM (inactive); in the assay with SK-OV-3, > 100 µM (inactive); in the assay with SNB-19, > 100 µM (inactive); in the assay on SR it was 0.873 µM (active); in the assay with SW-620, > 46.9 µM (inactive); in the assay with T47D, > 48.3 µM (inactive). For the same compound, the GI50 with UACC-257 is > 100 µM (inactive); in the assay with UACC-62, > 31.9 µM (inactive).
Turning to `Cn1c(=O)c2nc(CCS)[nH]c2n(C)c1=O`, the GI50 with ACHN is > 100 µM (inactive); in the assay with CCRF-CEM, 55 µM (inactive); in the assay on HCT-116, > 100 µM (inactive); with HOP-62 it was 54.3 µM (inactive); in the assay with LOX IMVI, > 100 µM (inactive); with M14, > 100 µM (inactive). The GI50 with MDA-MB-231, in the assay on MOLT-4, in the assay on Malme-3M, in the assay with NCI-H226, in the assay with OVCAR-3 and in the assay on OVCAR-4 was > 100 µM (inactive) each time. For the same compound, the GI50 with OVCAR-8 was > 100 µM (inactive); in the assay on SK-OV-3, 68.1 µM (inactive); in the assay on SNB-19, > 100 µM (inactive); in the assay with SR, > 100 µM (inactive); in the assay on SW-620, > 100 µM (inactive); in the assay on T47D, > 100 µM (inactive). Besides, the GI50 in the assay on UACC-257 and with UACC-62 was > 100 µM (inactive) throughout.
With `COc1ccccc1N1C(=O)C2C3c4ccccc4C(OC(C)=O)(c4ccccc43)C2C1=O` (stereo not given), the GI50 with ACHN is > 100 µM (inactive); with CCRF-CEM it was > 100 µM (inactive); in the assay on HCT-116 it was 57.3 µM (inactive); in the assay on HOP-62, 97.9 µM (inactive); with LOX IMVI, > 100 µM (inactive); in the assay with M14 it was > 100 µM (inactive). The GI50 was > 100 µM (inactive) with MDA-MB-231; > 100 µM (inactive) in the assay with MOLT-4; 33.8 µM (inactive) with Malme-3M; > 100 µM (inactive) in the assay on NCI-H226; > 100 µM (inactive) in the assay on OVCAR-3; 30.4 µM (inactive) in the assay on OVCAR-4. Moreover, the GI50 in the assay with OVCAR-8 is 43 µM (inactive); in the assay with SK-OV-3, > 100 µM (inactive); in the assay on SNB-19, 17.1 µM (inactive); in the assay with SR, > 100 µM (inactive); in the assay with SW-620 it was > 100 µM (inactive); in the assay with T47D, > 100 µM (inactive). Moreover, the GI50 in the assay on UACC-257 and in the assay with UACC-62 was > 100 µM (inactive) in each case.

The values above are taken from ChEMBL document CHEMBL1201862, “PubChem BioAssay data set” (2004).
